Data published in publication PMC12218921, “An adaptive peptide-binding site in ubiquitin receptor hRpn13 revealed by structural studies” (Nature Communications, 2025).

Test system: hRpn13 Pru
Assay: 1H-15N HSQC NMR, DTT versus TCEP in buffer
Format: binding, human
Conditions: 1 mM DTT or TCEP, 15N-hRpn13 Pru, 25 °C, 850 MHz
Description: Although DTT is trapped bound to C88 in the crystal, we expected that its interaction with hRpn13 in solution is likely to be transient and dynamic. Nonetheless, we tested whether NMR spectroscopy could detect differences between hRpn13 Pru dissolved in buffer containing DTT versus TCEP. We used previously obtained NMR resonance assignments[13] and 2D ^1H-^15N HSQC experiments to detect the hRpn13 amide signals, which are sensitive to changes in their chemical environment, for ^15N-labeled hRpn13 Pru with either 1 mM DTT or TCEP present in the buffer. […] C60 and C80 by contrast show no spectral perturbations (Supplementary Fig. 8a).
All ^1H-^15N HSQC experiments were acquired on samples dissolved in NMR buffer (20 mM sodium phosphate, pH 6.5, 50 mM NaCl, 1 mM TCEP, 10% D2O) unless specified, in which case 2 mM DTT replaced TCEP. The samples were purified in DTT-containing buffer and then exchanged into NMR buffer by using Zeba Protein Desalting columns (Thermo Fisher Scientific). The pH was measured and adjusted to 6.5. […] The data were processed by NMRpipe[46] (version 11.5) and spectra visualized and analyzed with NMR-FAM-SPARKY[47] (version 3.190) by using previous chemical shift assignments[12],[23] and NMRbox[48]. The amide nitrogen and hydrogen chemical shift perturbations (CSP) were mapped for each amino acid according to Eq. 1.1 CSP=0.2ΔδN2+ΔδH2 […]

Structure (SMILES): O[C@@H](CS)[C@@H](O)CS (racemic) [DTT, dithiothreitol]
- HSQC signal shifting, DTT versus TCEP: slight signal shifting, including for C88
